Literature values as cited in US20110130434A1, “MODIFIED RELEASE RAMIPRIL COMPOSITIONS AND USES THEREOF” (Panacea Biotec Ltd., priority 2008, published 2011).

Legend:
[1] = target: ACE (Homo sapiens, UniProt P12821)
[2] = after oral administration of ramipril

Sequence of ACE (P12821 30-1306, species assumed): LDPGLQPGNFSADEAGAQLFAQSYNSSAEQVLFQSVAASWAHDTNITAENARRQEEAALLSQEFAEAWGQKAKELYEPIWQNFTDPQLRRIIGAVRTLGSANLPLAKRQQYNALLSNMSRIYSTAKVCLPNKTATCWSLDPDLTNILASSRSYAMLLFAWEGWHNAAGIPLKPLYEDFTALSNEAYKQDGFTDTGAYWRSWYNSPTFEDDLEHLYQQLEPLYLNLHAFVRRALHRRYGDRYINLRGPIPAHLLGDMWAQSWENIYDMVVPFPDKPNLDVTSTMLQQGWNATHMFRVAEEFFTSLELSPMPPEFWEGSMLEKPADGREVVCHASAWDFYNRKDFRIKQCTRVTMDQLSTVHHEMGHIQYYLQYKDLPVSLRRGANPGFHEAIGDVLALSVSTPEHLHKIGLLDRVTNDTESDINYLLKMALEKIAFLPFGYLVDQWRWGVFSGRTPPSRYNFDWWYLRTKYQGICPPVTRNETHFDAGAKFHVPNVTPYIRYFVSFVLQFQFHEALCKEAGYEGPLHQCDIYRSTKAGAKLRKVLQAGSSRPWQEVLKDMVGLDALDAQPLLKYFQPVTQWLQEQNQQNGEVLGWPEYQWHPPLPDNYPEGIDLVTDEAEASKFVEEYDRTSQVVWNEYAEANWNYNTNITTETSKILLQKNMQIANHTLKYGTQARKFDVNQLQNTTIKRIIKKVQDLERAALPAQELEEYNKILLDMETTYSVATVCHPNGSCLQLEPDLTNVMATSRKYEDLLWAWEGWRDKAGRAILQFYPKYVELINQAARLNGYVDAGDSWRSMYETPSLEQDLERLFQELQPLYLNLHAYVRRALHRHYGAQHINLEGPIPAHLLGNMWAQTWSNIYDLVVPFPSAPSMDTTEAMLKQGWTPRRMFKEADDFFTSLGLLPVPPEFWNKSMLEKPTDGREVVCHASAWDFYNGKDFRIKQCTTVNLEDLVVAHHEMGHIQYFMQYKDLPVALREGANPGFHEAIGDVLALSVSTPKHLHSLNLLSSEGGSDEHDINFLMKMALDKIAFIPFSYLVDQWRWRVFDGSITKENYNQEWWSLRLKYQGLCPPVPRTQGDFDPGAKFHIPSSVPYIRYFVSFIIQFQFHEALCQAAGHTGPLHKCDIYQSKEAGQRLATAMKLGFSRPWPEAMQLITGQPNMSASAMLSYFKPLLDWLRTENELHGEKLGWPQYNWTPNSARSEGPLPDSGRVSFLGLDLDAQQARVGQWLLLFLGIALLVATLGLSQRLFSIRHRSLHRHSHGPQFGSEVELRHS

Question: With `C[C@H](N[C@@H](CCc1ccccc1)C(=O)O)C(=O)N1[C@H](C(=O)O)C[C@@H]2CCC[C@@H]21` [ramiprilat] as the compound, how does the “ACE inhibitory activity relative to ramipril” value [1] read?
Answer: 6 times

Question: What about the half life [2] of the same compound?
Answer: 13 to 17 h
